Measurements taken from article PMC7000700, “RyR1-targeted drug discovery pipeline integrating FRET-based high-throughput screening and human myofiber dynamic Ca^2+ assays” (Scientific Reports, 2020).

Tests used:
[1] = target: ryanodine receptor, skeletal muscle isoform (RyR1), in porcine skeletal heavy SR membranes (pig (endogenous in porcine longissimus dorsi muscle)) (UniProt P16960); assay: co-sedimentation; fluorescent FKBP12.6 co-sedimented with pig skeletal and cardiac SR membranes, same conditions as the primary screen; with 10 μM temsirolimus or tacrolimus
[2] = target: ryanodine receptor, cardiac isoform (RyR2), in porcine cardiac SR membranes (pig (endogenous in porcine cardiac left ventricle)); assay: as above
[3] = target: ryanodine receptor, skeletal muscle isoform (RyR1), in porcine skeletal heavy SR membranes (pig (endogenous in porcine longissimus dorsi muscle)) (UniProt P16960); assay: FRET or BRET; same FLT-FRET read-out with temsirolimus (dose response); skeletal and cardiac SR membranes, 30 nM Ca2+, 5 mM GSSG or GSH
[4] = target: ryanodine receptor, cardiac isoform (RyR2), in porcine cardiac SR membranes (pig (endogenous in porcine cardiac left ventricle)); assay: as above
RyR2 [5] = target: T1, RyR2 (Sus scrofa, UniProt A0A5G2R1W3); assay: FLT-FRET between D-FKBP and A-CaM bound to RyR2 in cardiac SR membranes (dose-response); type: binding, porcine; parameters: RyR1 in skeletal SR membranes, and RyR2 in cardiac SR membranes; from tissue; host or cells: porcine cardiac left ventricle (crude SR vesicles); conditions: RyR2, cardiac SR, 30 nM Ca2+
T1 sequence (A0A5G2R1W3 20-4900): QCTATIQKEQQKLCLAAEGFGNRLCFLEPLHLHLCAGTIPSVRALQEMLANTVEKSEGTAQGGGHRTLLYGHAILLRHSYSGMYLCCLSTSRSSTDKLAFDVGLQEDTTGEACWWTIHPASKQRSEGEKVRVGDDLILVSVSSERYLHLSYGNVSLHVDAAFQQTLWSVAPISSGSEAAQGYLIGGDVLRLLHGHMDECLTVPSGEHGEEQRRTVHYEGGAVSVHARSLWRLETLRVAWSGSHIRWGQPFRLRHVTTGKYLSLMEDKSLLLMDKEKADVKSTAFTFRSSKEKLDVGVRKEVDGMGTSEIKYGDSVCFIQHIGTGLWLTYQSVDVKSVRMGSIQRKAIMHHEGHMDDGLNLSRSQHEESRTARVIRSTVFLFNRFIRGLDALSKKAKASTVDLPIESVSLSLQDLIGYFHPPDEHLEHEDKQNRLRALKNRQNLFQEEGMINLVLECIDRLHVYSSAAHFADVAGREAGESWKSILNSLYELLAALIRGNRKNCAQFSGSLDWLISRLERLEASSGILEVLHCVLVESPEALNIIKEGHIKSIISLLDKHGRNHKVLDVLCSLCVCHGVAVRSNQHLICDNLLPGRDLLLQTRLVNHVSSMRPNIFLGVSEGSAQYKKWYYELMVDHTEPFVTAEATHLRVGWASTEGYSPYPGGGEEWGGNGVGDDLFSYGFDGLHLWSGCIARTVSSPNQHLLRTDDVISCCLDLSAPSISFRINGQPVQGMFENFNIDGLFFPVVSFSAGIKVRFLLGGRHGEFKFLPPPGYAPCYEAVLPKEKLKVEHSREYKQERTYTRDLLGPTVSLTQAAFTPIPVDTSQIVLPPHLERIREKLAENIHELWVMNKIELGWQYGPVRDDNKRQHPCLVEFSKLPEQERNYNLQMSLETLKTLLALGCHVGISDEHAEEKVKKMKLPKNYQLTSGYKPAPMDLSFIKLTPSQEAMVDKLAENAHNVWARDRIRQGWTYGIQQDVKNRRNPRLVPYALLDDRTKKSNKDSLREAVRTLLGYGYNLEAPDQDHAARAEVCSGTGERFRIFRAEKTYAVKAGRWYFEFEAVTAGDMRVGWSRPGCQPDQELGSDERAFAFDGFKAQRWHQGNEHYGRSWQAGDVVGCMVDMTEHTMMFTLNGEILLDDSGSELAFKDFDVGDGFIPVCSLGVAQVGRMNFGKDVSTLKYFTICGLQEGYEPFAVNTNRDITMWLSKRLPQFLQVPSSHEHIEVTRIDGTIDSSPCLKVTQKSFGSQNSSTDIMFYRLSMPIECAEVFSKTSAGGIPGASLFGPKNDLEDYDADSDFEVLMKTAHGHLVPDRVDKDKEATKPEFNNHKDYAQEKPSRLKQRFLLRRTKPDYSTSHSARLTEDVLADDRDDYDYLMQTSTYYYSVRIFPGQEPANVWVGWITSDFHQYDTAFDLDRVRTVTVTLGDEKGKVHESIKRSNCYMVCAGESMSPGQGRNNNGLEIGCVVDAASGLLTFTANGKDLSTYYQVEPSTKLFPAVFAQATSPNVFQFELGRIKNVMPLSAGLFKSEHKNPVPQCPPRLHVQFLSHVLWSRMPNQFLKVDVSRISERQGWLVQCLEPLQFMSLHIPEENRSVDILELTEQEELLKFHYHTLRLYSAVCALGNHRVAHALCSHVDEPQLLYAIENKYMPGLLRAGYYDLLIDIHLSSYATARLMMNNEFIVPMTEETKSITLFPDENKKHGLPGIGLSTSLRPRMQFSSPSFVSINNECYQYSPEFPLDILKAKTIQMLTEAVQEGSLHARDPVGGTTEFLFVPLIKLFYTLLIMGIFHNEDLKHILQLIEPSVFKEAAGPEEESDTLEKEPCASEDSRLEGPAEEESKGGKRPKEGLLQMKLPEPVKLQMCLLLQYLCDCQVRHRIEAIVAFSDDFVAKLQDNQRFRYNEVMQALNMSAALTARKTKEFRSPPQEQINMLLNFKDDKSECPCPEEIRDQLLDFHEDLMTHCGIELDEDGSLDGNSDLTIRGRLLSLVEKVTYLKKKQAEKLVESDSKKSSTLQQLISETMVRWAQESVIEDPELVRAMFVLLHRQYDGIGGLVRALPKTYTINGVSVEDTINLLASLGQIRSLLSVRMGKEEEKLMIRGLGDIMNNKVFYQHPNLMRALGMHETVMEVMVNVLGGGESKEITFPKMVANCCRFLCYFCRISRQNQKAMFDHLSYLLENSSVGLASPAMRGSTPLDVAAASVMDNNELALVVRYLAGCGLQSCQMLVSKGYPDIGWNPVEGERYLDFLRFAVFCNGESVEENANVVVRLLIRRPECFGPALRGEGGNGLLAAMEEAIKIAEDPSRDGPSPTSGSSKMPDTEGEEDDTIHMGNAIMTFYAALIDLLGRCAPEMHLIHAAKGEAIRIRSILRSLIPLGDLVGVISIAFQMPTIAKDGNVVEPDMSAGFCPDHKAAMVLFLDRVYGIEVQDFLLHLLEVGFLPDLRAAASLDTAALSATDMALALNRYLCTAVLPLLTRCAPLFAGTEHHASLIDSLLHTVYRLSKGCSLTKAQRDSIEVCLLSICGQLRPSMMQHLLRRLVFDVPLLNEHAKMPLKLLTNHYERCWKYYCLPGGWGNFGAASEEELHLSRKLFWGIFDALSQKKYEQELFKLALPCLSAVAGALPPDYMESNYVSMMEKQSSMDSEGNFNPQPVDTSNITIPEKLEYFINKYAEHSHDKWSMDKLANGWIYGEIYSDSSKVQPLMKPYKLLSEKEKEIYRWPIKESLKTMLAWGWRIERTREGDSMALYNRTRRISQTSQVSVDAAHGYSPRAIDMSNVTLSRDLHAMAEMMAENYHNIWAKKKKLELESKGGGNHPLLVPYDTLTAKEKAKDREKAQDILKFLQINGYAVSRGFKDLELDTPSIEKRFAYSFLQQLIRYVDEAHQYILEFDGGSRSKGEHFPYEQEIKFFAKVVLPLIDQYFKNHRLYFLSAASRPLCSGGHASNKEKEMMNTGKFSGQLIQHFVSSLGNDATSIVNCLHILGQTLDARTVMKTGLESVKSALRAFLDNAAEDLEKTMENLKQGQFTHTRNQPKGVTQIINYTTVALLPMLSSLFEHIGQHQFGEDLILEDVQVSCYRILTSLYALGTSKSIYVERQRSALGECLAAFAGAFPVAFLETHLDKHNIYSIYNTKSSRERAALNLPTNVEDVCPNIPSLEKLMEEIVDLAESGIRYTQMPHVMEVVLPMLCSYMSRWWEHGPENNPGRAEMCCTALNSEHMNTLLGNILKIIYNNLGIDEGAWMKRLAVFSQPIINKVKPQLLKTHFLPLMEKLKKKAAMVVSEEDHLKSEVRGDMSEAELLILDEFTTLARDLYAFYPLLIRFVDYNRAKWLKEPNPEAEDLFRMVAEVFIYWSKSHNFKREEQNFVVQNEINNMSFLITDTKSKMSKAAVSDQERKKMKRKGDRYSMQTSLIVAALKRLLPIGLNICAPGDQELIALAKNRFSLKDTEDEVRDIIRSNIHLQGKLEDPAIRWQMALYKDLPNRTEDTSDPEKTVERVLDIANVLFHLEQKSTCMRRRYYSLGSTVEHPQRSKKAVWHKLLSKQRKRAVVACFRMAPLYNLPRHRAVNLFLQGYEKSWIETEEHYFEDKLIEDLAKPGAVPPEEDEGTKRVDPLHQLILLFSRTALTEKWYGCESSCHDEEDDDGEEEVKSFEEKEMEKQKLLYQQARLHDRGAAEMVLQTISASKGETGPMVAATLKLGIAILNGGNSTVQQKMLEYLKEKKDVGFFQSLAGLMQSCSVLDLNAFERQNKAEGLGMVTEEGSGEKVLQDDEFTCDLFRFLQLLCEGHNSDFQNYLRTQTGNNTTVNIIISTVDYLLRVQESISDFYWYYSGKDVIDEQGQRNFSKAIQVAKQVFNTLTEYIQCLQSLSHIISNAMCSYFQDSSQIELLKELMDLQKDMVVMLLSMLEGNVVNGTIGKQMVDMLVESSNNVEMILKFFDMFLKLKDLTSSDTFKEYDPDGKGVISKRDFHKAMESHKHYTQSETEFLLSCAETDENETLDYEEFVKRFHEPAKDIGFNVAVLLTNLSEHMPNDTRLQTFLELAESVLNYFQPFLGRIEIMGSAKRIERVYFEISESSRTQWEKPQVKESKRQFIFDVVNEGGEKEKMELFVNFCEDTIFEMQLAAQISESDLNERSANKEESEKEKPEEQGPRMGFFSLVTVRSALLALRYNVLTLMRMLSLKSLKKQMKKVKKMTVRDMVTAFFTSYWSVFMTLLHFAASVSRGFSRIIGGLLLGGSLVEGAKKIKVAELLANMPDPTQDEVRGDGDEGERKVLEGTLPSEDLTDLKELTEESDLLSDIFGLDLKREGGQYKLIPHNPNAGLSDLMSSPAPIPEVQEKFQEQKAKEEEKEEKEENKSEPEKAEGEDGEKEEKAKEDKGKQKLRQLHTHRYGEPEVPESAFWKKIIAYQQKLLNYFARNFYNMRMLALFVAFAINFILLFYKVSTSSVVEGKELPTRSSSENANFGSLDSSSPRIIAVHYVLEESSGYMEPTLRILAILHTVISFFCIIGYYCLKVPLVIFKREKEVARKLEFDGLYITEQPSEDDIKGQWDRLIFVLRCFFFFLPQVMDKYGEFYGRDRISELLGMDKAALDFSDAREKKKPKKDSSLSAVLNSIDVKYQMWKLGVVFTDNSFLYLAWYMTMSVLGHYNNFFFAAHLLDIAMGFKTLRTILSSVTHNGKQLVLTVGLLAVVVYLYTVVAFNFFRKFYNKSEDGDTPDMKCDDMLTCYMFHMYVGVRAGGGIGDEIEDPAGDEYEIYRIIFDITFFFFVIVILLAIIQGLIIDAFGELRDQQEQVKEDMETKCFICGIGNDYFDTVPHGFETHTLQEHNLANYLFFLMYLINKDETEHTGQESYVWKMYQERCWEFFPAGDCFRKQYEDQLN
Method: (§1) Necessary counter-screens to our pathological RyR1 conditions include evaluating compound effects in healthy conditions and on the cardiac isoform, RyR2. Using the same FRET assay as in HTS, we tested the dose response of key Hits from this screen and the previously HTS-identified RyR1 inhibitor, chloroxine, on healthy (5 mM GSH) and pathological (5 mM GSSG) conditions for both RyR1 in skeletal SR membranes, and RyR2 in cardiac SR membranes.
(§2) Skeletal HSR and cardiac CSR (0.4 mg/ml) membranes were independently pre-incubated with 60 nM D-FKBP, for 90 min, at 37 °C, in a solution containing 150 mM KCl, 5 mM GSH, 0.1 mg/mL BSA, 1 µg/mL Aprotinin/Leupeptin, 1 mM DTT and 20 mM PIPES (pH 7.0). To remove unbound D-FKBP, the SR membranes were spun down at 110,000 × g for 20 min, and then resuspended to 1 mg/mL (skeletal HSR) and 2 mg/mL (cardiac CSR) in binding buffer consisting of 150 mM KCl, 5 mM GSSG, 0.1 mg/mL BSA, 1μg/mL Aprotinin/Leupeptin and 20 mM PIPES, pH 7.0. These samples were then incubated with indicated [A-CaM] for 30 min at 22 °C in binding buffer containing 0.065 mM CaCl2 to give 30 nM free Ca^2+ in the presence of 1 mM EGTA (calculated by MaxChelator). This labeled SR sample was applied to the assay plates in 5 μL aliquots using a Multidrop™ Combi reagent dispenser (Thermo Scientific) with a standard-tube. An additional set of the assay plates were loaded with skeletal HSR or cardiac CSR labeled with only D-FKBP (no added A-CaM).
(§3) FLT measurements were conducted in a top-read FLT-PR designed and built by Fluorescence Innovations, Inc[33]. AF488 donor fluorescence was excited with a 473-nm microchip laser from Concepts Research Corporation (Belgium, WI), and emission was acquired with 490-nm long-pass and 517/20-nm band-pass filters (Semrock, Rochester, NY).
(§4) FLT waveforms for each well were fit based on a one-exponential decay function using least-squares minimization global-analysis software (Fluorescence Innovations, Inc.), as previously described[19],[33]. FRET efficiency (E) was determined as the fractional decrease of donor FLT (τD), due to the presence of acceptor fluorophore (τDA), using the following equation:1 E=1−τDA/τD,

RyR2 [6] = target: T1, RyR2; assay: F-FKBP binding to RyR2 by co-sedimentation with cardiac SR membranes; parameters: using co-sedimentation with pig skeletal and cardiac SR membranes; from tissue; host or cells: pig cardiac muscle (crude SR membranes); species or system pig; conditions: RyR2, 10 μM Hit, 30 nM Ca2+, 5 mM GSSG or GSH
Method: (§5) The Hit-induced effect on FRET between D-FKBP and A-CaM most likely results from one or the combination of factors, including a shift in CaM and/or FKBP12.6 binding, and/or structure of the RyR complex that shifts the D-A distance. Under the same assay conditions as in the primary screen, we assessed the effect of 10 μM Hit on fluorescent FKBP12.6 (F-FKBP) binding to RyRs, using co-sedimentation with pig skeletal and cardiac SR membranes.
(§6) Supplementary Fig. 3 Effect of HTS Hits on F-FKBP binding to a) RyR1 in skeletal HSR membranes, and b) RyR2
(§7) in cardiac CSR membranes at 30 nM Ca2+ in the presence of 5 mM GSSG or GSH. Results are represented as individual
(§8) data points and means ± SEM, n = 4-5. *P < 0.05 by 2-sided Student’s unpaired t-test. […]

RyR1 [7] = target: T2, RyR1 (Sus scrofa, UniProt P16960); assay: F-FKBP binding to RyR1 by co-sedimentation with skeletal SR membranes; parameters: using co-sedimentation with pig skeletal and cardiac SR membranes; from tissue; host or cells: pig skeletal muscle (heavy SR membranes); species or system pig; conditions: RyR1, 10 μM Hit, 30 nM Ca2+, 5 mM GSSG or GSH
Method: as §5, §6, §7, §8

RyR1 [8] = target: T2, RyR1; assay: FLT-FRET between D-FKBP and A-CaM bound to RyR1 in skeletal SR membranes (HTS and dose-response); type: binding, porcine; parameters: RyR1 in skeletal SR membranes, and RyR2 in cardiac SR membranes; from tissue; host or cells: porcine longissimus dorsi muscle (heavy SR vesicles); conditions: for IC50: RyR1, skeletal SR
Method: To confer compatibility with current HTS standards in industrial drug discovery facilities, we miniaturized our screening format from the previously established 384-well plates, requiring 50 μL sample per well[19], to 1536-well plates, requiring 5 μL sample per well. The complete 1280-compound library of pharmacologically active compounds (LOPAC) was applied as 5 nL/well in 40 columns of one 1536-well black-wall/black-bottom plate, with the remaining 8 columns loaded with 5 nL/well of DMSO, as no-drug controls. For each run of the screen, three plates were loaded with either (1) unlabeled HSR, or (2) HSR pre-incubated with donor-FKBP (D-FKBP; donor-only sample), or (3) donor-only sample that was additionally incubated with 0.3 μM acceptor-CaM (A-CaM) for 60 min prior to loading on the plate (donor-acceptor sample). This sub-saturating concentration of A-CaM was used to provide a readout that is sensitive to library compounds that may increase or decrease CaM binding affinity to RyR. To promote a homogenous population of RyR1 resembling that associated with myopathies, final assay conditions also included 30 nM Ca^2+ to represent resting (muscle relaxing) Ca^2+, and 5 mM oxidized glutathione (GSSG), which exaggerates the conditions associated with oxidative stress.
We acquired both FLT waveforms and fluorescence spectra, as previously described[19],[33],[34]. As previously observed, Hit effects were greatest following a 2-hour incubation with the library compounds (Supplementary Fig. 1a). As a result, all FRET results shown in Figs. 1 and 2, and Supplementary Fig. 2 are reported from the 2-hour incubation.
as §1, §2, §3
as §4, with “E=1−τDA/τD, […]” for “E=1−τDA/τD,”

Compound | percent decrease of binding with 10 μM temsirolimus or tacrolimus [1] | percent decrease of binding with 10 μM temsirolimus or tacrolimus [2] | FRET reduction by temsirolimus [3] | FRET reduction by temsirolimus [4] | IC50 (RyR2 [5]; 5 mM GSH) | IC50 (RyR2 [5]; 5 mM GSSG) | Decrease of F-FKBP binding (RyR2 [6]) | Decrease of F-FKBP binding (RyR1 [7]) | Hit in primary FLT-FRET HTS of LOPAC (FRET altered by > 4 SD vs DMSO) (RyR1 [8]; 10 μM compound, 2-hour incubation, 30 nM Ca2+, 5 mM GSSG, 0.3 μM A-CaM, 1536-well) | Influence of GSSG vs GSH on the FRET dose-response effect (RyR1 [8]; 5 mM GSSG vs 5 mM GSH, isoform not given (figures show skeletal and cardiac SR)) | Compound concentration at which FRET is abolished (RyR1 [8]; FRET dose-response, isoform not given (figures show skeletal and cardiac SR)) | IC50 (RyR1 [8]; 30 nM Ca2+, 5 mM GSH) | IC50 (RyR1 [8]; 30 nM Ca2+, 5 mM GSSG)
FKBP12.6 single-cysteine mutant (C22A/T85C/C76I) labeled with AF488 (donor-FKBP) (natural protein) | 20% | 70% | 10% | 68 to 70% |  |  |  |  |  |  |  |  | 
Cc1ccc(C(=O)Nc2ccc(S(=O)(=O)O)c3cc(S(=O)(=O)O)cc(S(=O)(=O)O)c23)cc1NC(=O)c1cccc(NC(=O)Nc2cccc(C(=O)Nc3cc(C(=O)Nc4ccc(S(=O)(=O)O)c5cc(S(=O)(=O)O)cc(S(=O)(=O)O)c45)ccc3C)c2)c1 [suramin] |  |  |  |  | 2.5 ± 0.3 µM | 2.4 ± 0.6 µM | did not alter | did not alter | identified | not altered by GSH or GSSG | ≤ 20 µM | 5.9 ± 0.7 µM | 7.1 ± 0.5 µM
